Measured values published in ChEMBL document CHEMBL5465560, “Selectivity Literature for EUbOPEN Chemogenomic Library” (2024).

Columns and labels:
[1] = target: T1, Phosphatidylinositol 5-phosphate 4-kinase type-2 gamma (Homo sapiens) (UniProt Q8TBX8); test: Selectivity interaction (KinomeScan (DiscoverX)) EUB0000229b PIP4K2C; conditions: at 10 µM
T1 sequence (whole entry): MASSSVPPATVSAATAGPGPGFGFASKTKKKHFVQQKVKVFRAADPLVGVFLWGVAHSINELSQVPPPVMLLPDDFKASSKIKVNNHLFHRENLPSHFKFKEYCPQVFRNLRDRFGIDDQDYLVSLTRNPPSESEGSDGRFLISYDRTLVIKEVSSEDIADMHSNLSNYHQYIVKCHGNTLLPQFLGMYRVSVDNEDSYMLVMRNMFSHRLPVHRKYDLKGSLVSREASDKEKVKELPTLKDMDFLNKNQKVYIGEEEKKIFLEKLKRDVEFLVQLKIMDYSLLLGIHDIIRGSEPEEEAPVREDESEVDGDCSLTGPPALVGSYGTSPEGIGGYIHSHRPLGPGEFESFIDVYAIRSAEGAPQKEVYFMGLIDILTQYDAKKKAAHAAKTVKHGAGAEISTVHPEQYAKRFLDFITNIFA

[2] = target: Transcription initiation factor TFIID subunit 1-like (Homo sapiens) (UniProt Q8IZX4); test: Selectivity interaction (Bromodomain panel (DSF asssay)) EUB0000270b TAF1L
Transcription initiation factor TFIID subunit 1-like (Homo sapiens), sequence (Q8IZX4 whole entry): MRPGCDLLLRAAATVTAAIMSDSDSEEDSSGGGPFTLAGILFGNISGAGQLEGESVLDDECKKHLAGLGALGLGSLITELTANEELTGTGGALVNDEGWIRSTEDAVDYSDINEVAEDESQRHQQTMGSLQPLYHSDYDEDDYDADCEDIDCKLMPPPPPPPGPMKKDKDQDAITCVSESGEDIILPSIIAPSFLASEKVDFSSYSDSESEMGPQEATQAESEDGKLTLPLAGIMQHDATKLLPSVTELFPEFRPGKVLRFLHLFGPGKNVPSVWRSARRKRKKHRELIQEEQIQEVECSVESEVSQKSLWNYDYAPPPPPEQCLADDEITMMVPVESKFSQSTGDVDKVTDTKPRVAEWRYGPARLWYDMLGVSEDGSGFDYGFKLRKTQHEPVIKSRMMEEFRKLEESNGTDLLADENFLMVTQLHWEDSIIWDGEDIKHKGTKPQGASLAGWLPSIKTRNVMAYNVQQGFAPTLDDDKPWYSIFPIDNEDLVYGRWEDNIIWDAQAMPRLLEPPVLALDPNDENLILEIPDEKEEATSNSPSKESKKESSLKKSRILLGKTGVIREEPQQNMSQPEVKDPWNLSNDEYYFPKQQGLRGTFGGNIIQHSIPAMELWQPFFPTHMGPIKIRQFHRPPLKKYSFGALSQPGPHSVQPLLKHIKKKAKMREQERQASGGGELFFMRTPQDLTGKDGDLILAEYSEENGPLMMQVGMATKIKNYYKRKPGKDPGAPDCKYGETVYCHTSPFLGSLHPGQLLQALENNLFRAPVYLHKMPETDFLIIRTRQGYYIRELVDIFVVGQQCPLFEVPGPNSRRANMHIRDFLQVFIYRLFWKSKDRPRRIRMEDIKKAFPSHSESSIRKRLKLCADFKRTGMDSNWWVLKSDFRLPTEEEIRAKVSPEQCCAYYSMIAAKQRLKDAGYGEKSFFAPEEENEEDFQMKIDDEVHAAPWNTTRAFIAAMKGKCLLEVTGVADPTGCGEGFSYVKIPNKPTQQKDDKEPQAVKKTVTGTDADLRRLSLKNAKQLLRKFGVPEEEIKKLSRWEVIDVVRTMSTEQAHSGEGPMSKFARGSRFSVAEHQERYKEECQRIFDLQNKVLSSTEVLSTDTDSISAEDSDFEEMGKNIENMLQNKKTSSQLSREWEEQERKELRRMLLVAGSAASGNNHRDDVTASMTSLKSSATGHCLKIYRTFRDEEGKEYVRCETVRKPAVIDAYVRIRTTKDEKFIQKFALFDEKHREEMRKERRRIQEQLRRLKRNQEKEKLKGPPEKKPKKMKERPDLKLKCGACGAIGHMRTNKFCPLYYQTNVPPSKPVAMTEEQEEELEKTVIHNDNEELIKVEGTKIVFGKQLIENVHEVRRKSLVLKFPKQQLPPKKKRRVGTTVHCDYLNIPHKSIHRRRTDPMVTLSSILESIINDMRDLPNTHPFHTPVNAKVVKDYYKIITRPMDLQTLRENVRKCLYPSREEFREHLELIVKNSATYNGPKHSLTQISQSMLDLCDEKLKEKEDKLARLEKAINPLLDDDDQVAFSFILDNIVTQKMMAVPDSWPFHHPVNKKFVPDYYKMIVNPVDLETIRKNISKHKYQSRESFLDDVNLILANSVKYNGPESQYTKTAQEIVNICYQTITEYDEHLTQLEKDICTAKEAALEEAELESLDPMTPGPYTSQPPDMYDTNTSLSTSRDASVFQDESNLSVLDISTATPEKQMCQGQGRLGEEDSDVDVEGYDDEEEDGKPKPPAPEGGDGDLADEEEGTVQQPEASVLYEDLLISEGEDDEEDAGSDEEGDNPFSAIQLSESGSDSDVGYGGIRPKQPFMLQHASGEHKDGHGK

[3] = target: Serine/threonine-protein kinase PLK1 (Homo sapiens, UniProt P53350); test: Selectivity interaction (KinomeScan (DiscoverX)) EUB0000092b PLK1; conditions: at 10 µM
Serine/threonine-protein kinase PLK1, sequence (P53350 whole entry): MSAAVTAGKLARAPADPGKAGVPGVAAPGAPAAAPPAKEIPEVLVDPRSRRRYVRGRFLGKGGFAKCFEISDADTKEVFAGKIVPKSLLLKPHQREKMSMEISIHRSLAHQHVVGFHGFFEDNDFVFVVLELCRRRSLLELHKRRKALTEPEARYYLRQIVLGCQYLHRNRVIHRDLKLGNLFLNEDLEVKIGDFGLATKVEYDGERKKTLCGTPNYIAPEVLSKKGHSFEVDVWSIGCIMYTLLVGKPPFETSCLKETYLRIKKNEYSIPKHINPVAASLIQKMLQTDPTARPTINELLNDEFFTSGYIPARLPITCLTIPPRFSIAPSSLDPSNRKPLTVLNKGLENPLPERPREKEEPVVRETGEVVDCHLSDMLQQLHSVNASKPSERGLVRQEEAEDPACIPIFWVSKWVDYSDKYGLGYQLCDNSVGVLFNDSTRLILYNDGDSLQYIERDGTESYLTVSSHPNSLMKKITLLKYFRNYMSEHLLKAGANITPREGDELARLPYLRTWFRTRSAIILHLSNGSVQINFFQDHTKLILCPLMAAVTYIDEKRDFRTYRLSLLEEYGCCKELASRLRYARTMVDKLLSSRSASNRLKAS

[4] = target: T2, Dual serine/threonine and tyrosine protein kinase (Homo sapiens) (UniProt Q6XUX3); conditions: at 10 µM
T2 sequence (whole entry): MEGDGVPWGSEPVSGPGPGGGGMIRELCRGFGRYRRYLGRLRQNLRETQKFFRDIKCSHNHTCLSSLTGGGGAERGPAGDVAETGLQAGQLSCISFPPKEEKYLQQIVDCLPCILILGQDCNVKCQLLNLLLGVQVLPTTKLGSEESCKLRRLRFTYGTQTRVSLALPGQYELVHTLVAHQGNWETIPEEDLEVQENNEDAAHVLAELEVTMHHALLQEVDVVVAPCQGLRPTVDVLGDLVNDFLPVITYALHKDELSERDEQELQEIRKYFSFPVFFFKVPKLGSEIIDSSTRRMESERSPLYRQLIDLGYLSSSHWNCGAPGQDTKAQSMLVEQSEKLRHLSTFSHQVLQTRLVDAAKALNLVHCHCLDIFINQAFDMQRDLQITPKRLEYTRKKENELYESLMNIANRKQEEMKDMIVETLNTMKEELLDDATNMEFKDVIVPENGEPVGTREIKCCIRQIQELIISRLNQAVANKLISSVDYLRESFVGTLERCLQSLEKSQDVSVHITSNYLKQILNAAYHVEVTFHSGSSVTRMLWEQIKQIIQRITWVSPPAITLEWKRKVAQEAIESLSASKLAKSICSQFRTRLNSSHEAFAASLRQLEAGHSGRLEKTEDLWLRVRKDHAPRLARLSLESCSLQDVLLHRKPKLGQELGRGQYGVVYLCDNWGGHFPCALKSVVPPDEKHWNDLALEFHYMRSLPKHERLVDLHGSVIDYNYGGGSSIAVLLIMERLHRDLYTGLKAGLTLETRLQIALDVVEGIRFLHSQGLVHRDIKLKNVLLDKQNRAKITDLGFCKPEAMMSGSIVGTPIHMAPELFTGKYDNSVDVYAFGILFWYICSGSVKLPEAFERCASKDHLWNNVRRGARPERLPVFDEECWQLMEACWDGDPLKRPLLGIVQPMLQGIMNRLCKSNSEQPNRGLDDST

[5] = target: T3, Dual specificity protein kinase TTK (Homo sapiens) (UniProt P33981); test: Selectivity interaction (KinomeScan (DiscoverX)) EUB0000655a TTK; conditions: at 10 µM
T3 sequence (whole entry): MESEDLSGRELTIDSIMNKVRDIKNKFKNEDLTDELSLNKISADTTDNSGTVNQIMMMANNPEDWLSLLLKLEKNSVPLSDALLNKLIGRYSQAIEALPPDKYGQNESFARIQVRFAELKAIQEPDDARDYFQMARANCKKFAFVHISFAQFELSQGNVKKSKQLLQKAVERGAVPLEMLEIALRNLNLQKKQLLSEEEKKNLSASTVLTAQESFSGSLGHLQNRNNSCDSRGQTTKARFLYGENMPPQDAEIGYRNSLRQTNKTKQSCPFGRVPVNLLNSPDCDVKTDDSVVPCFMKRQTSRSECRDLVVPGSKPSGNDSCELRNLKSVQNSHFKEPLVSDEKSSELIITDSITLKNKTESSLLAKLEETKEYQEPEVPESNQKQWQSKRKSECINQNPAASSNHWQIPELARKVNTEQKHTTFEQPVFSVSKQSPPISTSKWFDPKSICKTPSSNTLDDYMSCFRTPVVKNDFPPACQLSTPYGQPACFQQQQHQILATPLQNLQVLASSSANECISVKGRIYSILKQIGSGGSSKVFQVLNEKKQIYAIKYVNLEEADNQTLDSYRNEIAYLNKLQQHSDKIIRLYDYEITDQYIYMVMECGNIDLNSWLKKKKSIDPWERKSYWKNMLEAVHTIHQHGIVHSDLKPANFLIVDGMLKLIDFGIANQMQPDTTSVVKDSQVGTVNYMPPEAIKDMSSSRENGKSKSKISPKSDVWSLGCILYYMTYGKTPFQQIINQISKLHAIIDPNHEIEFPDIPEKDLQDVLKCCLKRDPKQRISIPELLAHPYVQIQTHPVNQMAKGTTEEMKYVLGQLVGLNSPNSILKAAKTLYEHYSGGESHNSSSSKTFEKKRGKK

[6] = target: T4, Tyrosine-protein kinase ITK/TSK (Homo sapiens) (UniProt Q08881); test: Selectivity interaction (Kinase panel (Z-LYTE Assay)) EUB0001632a ITK; conditions: at 10 µM
T4 sequence (whole entry): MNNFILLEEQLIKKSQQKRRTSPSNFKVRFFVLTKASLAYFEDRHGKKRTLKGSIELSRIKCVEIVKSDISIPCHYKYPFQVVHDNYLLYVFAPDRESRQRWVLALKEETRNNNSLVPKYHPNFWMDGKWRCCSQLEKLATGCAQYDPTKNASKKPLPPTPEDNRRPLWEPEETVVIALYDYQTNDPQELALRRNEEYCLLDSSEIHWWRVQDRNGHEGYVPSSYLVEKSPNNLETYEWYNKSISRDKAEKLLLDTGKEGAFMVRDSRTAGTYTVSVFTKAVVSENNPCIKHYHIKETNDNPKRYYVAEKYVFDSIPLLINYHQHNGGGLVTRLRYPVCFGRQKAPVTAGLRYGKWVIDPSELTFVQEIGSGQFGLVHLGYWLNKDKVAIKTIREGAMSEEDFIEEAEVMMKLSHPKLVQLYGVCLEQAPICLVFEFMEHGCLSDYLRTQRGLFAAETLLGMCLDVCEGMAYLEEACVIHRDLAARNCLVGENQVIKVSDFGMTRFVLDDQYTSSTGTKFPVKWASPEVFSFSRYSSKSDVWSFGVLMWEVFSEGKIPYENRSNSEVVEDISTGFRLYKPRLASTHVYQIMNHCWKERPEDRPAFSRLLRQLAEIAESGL

SMILES: COc1cc(N(C)c2ccnc3ccc(C(F)(F)F)cc23)cc(OC)c1OC
- % binding [1]: 38%

SMILES: Cc1cc(CN)cc(C)c1-c1ncn(C)c1-c1cncn1C
- dTM [2]: -1.56 K

SMILES: CCC(=O)N1CCN(c2ccc(-n3c(=O)ccc4cnc5ccc(-c6cnc7ccccc7c6)cc5c43)cc2C(F)(F)F)CC1
- % of control [3]: 85%

SMILES: Cc1cc([C@@H](C)Nc2ccccc2C(=O)O)c2nc(N3CCOCC3)cc(=O)n2c1 [AZD-6482]
- % of control [4]: 100%

SMILES: CN(C)CCOc1ccc(-c2nc(-c3ccncc3)c(-c3ccc4c(c3)CC/C4=N\O)[nH]2)cc1
- % of control [5]: 94%

SMILES: Cn1cc(-n2cnc3c(NCc4nc5cc(Cl)c(Cl)cc5[nH]4)nc(N4CCOCC4)nc32)cn1
- % of control [6]: -0.395%
